Source: PMC12721191, “Oxidative hypoxia drives TGF-β1–induced fibrosis under normoxia” (Redox Biology, 2025)

Experiments:
CYP2A6 = molecular target: T1, CYP2A6 (Homo sapiens, UniProt P11509); assay: Cytochrome P450 inhibition assay in HLMs; format: in vitro ADME; conditions: Coumarin 7-hydroxylation, pooled HLMs, up to 50 μM
T1 construct: tissue Xenotech H0630; host or cells: pooled human liver microsomes
T1 sequence (P11509 1-494): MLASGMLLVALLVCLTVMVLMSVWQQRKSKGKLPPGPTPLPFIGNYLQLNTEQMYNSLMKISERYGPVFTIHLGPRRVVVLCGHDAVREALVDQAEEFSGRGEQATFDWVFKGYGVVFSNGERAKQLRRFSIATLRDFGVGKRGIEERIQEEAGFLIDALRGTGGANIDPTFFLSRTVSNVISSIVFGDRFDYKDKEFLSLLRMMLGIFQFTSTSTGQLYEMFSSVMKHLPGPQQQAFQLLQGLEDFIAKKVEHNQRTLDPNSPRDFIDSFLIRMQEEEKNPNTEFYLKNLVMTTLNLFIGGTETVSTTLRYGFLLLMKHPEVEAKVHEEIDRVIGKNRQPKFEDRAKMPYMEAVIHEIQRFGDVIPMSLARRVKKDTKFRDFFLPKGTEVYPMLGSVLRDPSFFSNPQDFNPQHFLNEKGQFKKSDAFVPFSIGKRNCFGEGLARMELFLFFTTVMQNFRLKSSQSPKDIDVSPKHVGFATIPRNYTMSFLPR
Procedure: (§1) Cytochrome P450 Inhibition Assay: […] All experiments were performed in triplicate. Phenacetin O-deethylase, coumarin hydroxylase, bupropion hydroxylase, amodiaquine N-deethylase, tolbutamide 4-hydroxylase, S-mephenytoin hydroxylase, dextromethorphan O-demethylase, chlorozoxazone 6-hydroxylase, and midazolam 1’-hydroxylase activities were determined as probe activities for CYP1A2, CYP2A6, CYP2B6, CYP2C8, CYP2C9, CYP2C19, CYP2D6, CYP2E1, and CYP3A, respectively, using cocktail incubation and tandem mass spectrometry, as described previously^2,3.

CYP2E1 = molecular target: T2, CYP2E1 (Homo sapiens, UniProt P05181); assay: Cytochrome P450 inhibition assay in HLMs; format: in vitro ADME; conditions: Chlorozoxazone 6-hydroxylation, pooled HLMs, up to 50 μM
T2 construct: tissue Xenotech H0630; host or cells: pooled human liver microsomes
T2 sequence (P05181 whole entry): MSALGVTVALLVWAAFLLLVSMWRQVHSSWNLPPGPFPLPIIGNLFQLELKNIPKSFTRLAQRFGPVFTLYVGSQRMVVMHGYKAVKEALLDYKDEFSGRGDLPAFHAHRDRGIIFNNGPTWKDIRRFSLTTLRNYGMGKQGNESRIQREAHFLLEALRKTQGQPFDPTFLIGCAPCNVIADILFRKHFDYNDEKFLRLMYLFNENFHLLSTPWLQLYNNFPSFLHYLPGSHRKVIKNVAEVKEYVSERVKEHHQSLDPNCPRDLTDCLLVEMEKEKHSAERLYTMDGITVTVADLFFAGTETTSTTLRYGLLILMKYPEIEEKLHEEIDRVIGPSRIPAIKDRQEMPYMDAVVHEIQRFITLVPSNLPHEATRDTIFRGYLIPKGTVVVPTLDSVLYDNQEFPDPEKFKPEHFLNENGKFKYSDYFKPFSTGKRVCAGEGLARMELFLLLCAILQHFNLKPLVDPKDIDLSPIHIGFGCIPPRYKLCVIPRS
Procedure: as §1

CYP2D6 = molecular target: T3, CYP2D6 (Homo sapiens, UniProt P10635); assay: Cytochrome P450 inhibition assay in HLMs; format: in vitro ADME; conditions: Dextromethorphan O-demethylation, pooled HLMs, up to 50 μM
T3 construct: tissue Xenotech H0630; host or cells: pooled human liver microsomes
T3 sequence (P10635 whole entry): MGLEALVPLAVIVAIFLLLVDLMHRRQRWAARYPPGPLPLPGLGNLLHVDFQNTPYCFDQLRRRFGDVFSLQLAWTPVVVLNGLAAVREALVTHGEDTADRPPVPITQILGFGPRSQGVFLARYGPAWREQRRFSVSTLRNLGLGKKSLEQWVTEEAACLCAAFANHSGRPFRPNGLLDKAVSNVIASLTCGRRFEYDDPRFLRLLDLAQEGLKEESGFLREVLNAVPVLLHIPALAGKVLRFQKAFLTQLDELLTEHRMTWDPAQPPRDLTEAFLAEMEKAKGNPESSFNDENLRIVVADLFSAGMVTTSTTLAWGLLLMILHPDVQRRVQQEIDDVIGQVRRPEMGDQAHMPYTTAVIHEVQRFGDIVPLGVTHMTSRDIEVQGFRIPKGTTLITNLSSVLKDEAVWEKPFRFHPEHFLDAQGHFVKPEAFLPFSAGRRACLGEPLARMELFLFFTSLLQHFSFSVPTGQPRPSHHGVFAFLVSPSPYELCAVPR
Procedure: as §1

CYP1A2 = molecular target: T4, CYP1A2 (Homo sapiens, UniProt P05177); assay: Cytochrome P450 inhibition assay in HLMs; format: in vitro ADME; conditions: Phenacetin O-deethylation, pooled HLMs, up to 50 μM
T4 sequence (P05177 1-516): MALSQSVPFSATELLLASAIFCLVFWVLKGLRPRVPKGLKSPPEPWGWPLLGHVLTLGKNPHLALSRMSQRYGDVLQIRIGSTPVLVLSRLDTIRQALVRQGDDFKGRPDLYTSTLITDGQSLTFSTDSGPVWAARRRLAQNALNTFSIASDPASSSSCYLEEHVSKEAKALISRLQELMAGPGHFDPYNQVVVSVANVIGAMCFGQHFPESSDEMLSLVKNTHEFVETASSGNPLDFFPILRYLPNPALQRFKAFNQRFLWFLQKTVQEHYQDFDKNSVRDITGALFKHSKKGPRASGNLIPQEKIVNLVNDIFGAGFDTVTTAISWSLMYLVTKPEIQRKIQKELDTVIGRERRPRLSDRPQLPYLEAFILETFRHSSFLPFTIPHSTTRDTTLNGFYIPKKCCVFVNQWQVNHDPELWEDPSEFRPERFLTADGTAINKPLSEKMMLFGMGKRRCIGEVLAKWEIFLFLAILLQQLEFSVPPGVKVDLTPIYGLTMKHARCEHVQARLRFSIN
Procedure: as §1

CYP2B6 = molecular target: T5, CYP2B6 (Homo sapiens, UniProt P20813); assay: Cytochrome P450 inhibition assay in HLMs; format: in vitro ADME; conditions: Bupropion hydroxylation, pooled HLMs, up to 50 μM
T5 construct: tissue Xenotech H0630; host or cells: pooled human liver microsomes
T5 sequence (P20813 1-491): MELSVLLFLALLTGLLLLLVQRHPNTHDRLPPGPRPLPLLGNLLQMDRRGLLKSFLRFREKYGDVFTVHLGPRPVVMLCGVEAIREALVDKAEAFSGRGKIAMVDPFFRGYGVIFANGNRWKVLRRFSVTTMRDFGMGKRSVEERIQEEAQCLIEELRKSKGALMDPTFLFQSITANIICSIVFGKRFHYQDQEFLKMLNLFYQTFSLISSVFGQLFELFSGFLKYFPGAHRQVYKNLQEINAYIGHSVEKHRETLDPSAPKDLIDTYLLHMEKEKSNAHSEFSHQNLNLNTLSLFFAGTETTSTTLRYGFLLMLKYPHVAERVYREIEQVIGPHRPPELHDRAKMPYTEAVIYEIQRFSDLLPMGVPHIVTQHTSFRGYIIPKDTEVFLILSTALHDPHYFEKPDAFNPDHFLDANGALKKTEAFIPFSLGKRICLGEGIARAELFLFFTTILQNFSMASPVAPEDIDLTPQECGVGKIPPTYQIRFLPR
Procedure: as §1

CYP3A = CYP3A (Homo sapiens, UniProt P08684); assay: Cytochrome P450 inhibition assay in HLMs; format: in vitro ADME; conditions: pooled human liver microsomes, probe midazolam (1'-hydroxylation), up to 50 μM
Sequence of CYP3A (P08684 2-503): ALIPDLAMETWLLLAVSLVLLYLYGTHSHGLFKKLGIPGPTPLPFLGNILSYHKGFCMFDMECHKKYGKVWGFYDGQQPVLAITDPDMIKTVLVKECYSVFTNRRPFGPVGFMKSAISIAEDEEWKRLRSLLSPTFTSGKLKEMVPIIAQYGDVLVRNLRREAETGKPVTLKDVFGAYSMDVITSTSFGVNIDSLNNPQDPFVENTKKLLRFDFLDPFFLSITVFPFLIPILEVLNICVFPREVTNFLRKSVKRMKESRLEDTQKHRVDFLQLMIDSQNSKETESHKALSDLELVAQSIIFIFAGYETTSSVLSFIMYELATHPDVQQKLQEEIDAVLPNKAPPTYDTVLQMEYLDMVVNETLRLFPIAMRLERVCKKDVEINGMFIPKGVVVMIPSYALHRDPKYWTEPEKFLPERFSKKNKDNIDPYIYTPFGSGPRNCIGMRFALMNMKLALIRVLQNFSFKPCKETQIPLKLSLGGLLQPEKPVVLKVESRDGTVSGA
Procedure: as §1

[1] = tested on: BLM-induced pulmonary fibrosis; assay: RT-qPCR of lung tissue in BLM-treated mice; format: in vivo, ICR mice; conditions: BLM 30 mg/kg; ACF-2 10 mg/kg i.p. every 2 days or NIDB 60 mg/kg/day
Procedure: Total RNA (AccuPrep®) was reverse-transcribed and amplified with SYBR Green chemistry on a StepOnePlusTM system; relative expression was calculated by ΔΔCt. Male ICR mice received BLM (30 mg/kg, intratracheal). […] Total RNA was extracted from both cultured cells and mouse lung tissue using the AccuPrep® Universal RNA Extraction Kit. […] RT-qPCR was performed using iTaqTM Universal SYBR® Green Supermix on a StepOnePlusTM Real-Time PCR System. […] All animal studies were approved by the Institutional Animal Care and Use Committee of Jeju National University (Approval ID: 2024-0058) and conducted in compliance with institutional guidelines. Male ICR mice (6 weeks old, average body weight 27 g) were purchased from […] (South Korea) and housed under controlled temperature (22 ± 2 °C) and humidity (0.0 ± 15.0 %) on a 12 hr light-dark cycle with free access to food and water.

Structure (SMILES): COc1ccc(-c2c(-c3ccc(O)c(OC)c3)oc3cc(OC)c(OC)cc3c2=O)cc1 [ACF-2]
- IC50 (CYP2A6): > 50 µM
- IC50 (CYP2E1): > 50 µM
- IC50 (CYP2D6): 40.2 ± 12.4 µM
- IC50 (CYP1A2): > 50 µM
- IC50 (CYP2B6): > 50 µM
- IC50 (CYP3A): > 50 µM
- TGF-β1 (Tgfb1) expression in lung (RT-qPCR) [1]: markedly reduced
